Here are results for 26 compounds from patent US9433622B2, “Pyrimidine compounds useful in the treatment of diseases mediated by IKKE and/or TBK1 mechanisms” (DOMAINEX LIMITED, priority 2013, dated 2016).

Read-outs that look alike come from different tables or passages of the source. Bounds are passed on as bounds.

One assay addresses TBK1 (Homo sapiens (Human), UniProt Q9UHD2). The assay is described as follows: Lanthascreen TR-FRET kinase inhibition assay, TBK1. To be noted: 20 μM ATP (apparent Km), 8 nM kinase, 2.5 h. In kind it is biochemical. On the procedure: (§1) Compounds of the invention (synthesised as described below) were tested for activity against the IKKε and TBK-1 enzyme as follows:
(§2) Inhibitions studies were performed using a time-resolved fluorescence-based Lanthascreen™ assay. Phosphorylation of a fluorescein-labelled substrate peptide is measured using terbium-labeled phosphospecific antibodies.
(§3) Kinase inhibition assays (10 μL) were performed at 20° C. in 384-well plate format. […] The final reaction conditions contained 400 nM fluorescein-IkBα substrate ([…]), 20 μM ATP, 2 nM or 8 nM IKKε or TBK1 kinase respectively, and 3% DMSO in kinase assay buffer consisting of 50 mM HEPES (pH 7.5), 10 mM MgCl, 1 mM EGTA, 0.01% Brij-35.
(§4) Compound dilutions were prepared from 10 mM DMSO stocks by dilution into DMSO.
(§5) The kinase phosphorylation assay was initiated by the addition of the kinase and the reaction was allowed to proceed for 1 h or 2.5 h for IKKε and TBK-1 kinase respectively.
Background: In TR-FRET formats the signal depends on donor and acceptor labels being close together.

In another assay the target is IKKε (Homo sapiens (Human), UniProt Q14164). The assay is described as follows: Lanthascreen TR-FRET kinase inhibition assay, IKKε. In kind it is biochemical. As for the experimental part: as §1, §2, §3, §4, §5
Where [1] appears, read: 20 μM ATP (apparent Km), 2 nM kinase, 1 h.

Broadly, the IC50 is the midpoint of a concentration-inhibition curve.

TBK1, sequence (Q9UHD2 whole entry): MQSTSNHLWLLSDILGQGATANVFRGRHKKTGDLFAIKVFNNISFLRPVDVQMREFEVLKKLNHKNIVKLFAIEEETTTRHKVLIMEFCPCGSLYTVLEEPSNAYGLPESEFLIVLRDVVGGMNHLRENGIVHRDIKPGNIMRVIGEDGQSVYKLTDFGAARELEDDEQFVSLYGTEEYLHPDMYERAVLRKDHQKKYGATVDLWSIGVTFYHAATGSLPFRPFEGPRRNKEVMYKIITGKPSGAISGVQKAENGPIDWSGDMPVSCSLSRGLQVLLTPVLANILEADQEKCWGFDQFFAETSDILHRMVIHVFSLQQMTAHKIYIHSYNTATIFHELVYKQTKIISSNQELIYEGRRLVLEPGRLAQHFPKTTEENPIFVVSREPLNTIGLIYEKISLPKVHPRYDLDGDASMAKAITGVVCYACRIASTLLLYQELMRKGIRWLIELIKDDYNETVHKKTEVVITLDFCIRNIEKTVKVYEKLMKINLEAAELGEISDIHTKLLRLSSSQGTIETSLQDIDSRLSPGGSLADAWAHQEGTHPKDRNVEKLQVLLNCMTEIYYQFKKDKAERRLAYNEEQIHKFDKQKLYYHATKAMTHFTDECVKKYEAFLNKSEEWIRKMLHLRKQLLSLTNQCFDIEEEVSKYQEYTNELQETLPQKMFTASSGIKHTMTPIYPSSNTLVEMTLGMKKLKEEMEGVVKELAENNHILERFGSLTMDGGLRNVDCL
IKKε, sequence (Q14164 whole entry): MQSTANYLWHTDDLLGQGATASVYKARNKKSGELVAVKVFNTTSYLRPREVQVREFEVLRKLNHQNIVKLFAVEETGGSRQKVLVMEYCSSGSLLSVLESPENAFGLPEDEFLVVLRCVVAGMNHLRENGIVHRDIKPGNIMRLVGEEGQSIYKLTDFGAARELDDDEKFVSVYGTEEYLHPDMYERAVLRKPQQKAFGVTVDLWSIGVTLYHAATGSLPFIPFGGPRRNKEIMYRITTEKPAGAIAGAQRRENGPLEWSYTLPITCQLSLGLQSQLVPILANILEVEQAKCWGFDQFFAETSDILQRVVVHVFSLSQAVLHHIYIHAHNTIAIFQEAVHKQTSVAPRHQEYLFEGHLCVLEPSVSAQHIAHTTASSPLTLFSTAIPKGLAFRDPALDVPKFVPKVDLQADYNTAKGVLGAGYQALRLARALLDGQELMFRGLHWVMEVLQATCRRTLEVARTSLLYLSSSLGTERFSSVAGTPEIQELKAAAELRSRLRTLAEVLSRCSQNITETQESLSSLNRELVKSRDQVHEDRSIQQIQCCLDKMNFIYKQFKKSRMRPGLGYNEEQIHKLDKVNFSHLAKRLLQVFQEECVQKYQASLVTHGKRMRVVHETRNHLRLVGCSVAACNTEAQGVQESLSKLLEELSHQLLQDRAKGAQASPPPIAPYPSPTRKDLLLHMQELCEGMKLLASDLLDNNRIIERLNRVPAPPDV

As to `CN1CCC(NC(=O)c2cccc(Nc3nccc(-c4cnc(N5CC[C@H](F)C5)c(C#N)c4)n3)c2)CC1` [DMX-1, 3-{4-[5-Cyano-6-((S)-3-fluoro-pyrrolidin-1-yl)-pyridin-3-yl]-pyrimidin-2-ylamino}-N-(1-methyl-piperidin-4-yl)-benzamide], the IC50 is less than 30 nM at TBK1 and less than 100 nM at IKKε (setting [1]).

With `N#Cc1cc(-c2ccnc(Nc3cccc(C(N)=O)c3)n2)cnc1N1CCCC1` [DMX-2, 3-[4-(5-Cyano-6-pyrrolidin-1-yl-pyridin-3-yl)-pyrimidin-2-ylamino]-benzamide], the IC50 on TBK1 and at IKKε (setting [1]) was less than 30 nM in each case.

In the case of `CN1CCN(c2ccc(Nc3nccc(-c4cnc(N5CCCC5)c(C#N)c4)n3)cn2)CC1` [DMX-3, 5-{2-[6-(4-Methyl-piperazin-1-yl)-pyridin-3-ylamino]-pyrimidin-4-yl}-2-pyrrolidin-1-yl-nicotinonitrile], the IC50 at TBK1 and on IKKε (setting [1]) was less than 15 nM in each case.

Take `N#Cc1cc(-c2ccnc(Nc3ccc(N4CCOCC4)cc3)n2)cnc1N1CCCC1` [DMX-5, 5-[2-(4-Morpholin-4-yl-phenylamino)-pyrimidin-4-yl]-2-pyrrolidin-1-yl-nicotinonitrile]: the IC50 at TBK1 is less than 15 nM; on IKKε (setting [1]) it was less than 30 nM.

Take `CN1CCN(C(=O)c2cccc(Nc3nccc(-c4cnc(N5CC[C@H](F)C5)c(C#N)c4)n3)c2)CC1` [DMX-6, 2-((S)-3-Fluoro-pyrrolidin-1-yl)-5-{2-[3-(4-methyl-piperazine-1-carbonyl)-phenylamino]-pyrimidin-4-yl}-nicotinonitrile]: the IC50 on TBK1 was less than 30 nM; at IKKε (setting [1]), less than 100 nM.

Take `Cn1cc(Nc2nccc(-c3cnc(N4CC[C@H](F)C4)c(C#N)c3)n2)cn1` [DMX-7, 2-((S)-3-Fluoro-pyrrolidin-1-yl)-5-[2-(1-methyl-1H-pyrazol-4-ylamino)-pyrimidin-4-yl]-nicotinonitrile]: the IC50 at TBK1 and at IKKε (setting [1]) was less than 30 nM throughout.

As for `CC(=O)Nc1ccc(Nc2nccc(-c3cnc(N4CC[C@H](F)C4)c(C#N)c3)n2)cn1` [DMX-8, N-(5-{4-[5-Cyano-6-((S)-3-fluoro-pyrrolidin-1-yl)-pyridin-3-yl]-pyrimidin-2-ylamino}-pyridin-2-yl)-acetamide], the IC50 on TBK1 and at IKKε (setting [1]) was less than 30 nM throughout.

As to `CN1CCC(Nc2ccc(Nc3nccc(-c4cnc(N5CC[C@H](F)C5)c(C#N)c4)n3)cn2)CC1` [DMX-9, 2-((S)-3-Fluoro-pyrrolidin-1-yl)-5-{2-[6-(1-methyl-piperidin-4-ylamino)-pyridin-3-ylamino]-pyrimidin-4-yl}-nicotinonitrile], the IC50 was less than 30 nM at TBK1 and less than 15 nM on IKKε (setting [1]).

With `N#Cc1cc(-c2ccnc(Nc3ccc(NC4CCNCC4)nc3)n2)cnc1N1CC[C@H](F)C1` [DMX-10, 2-((S)-3-Fluoro-pyrrolidin-1-yl)-5-{2-[6-(piperidin-4-ylamino)-pyridin-3-ylamino]-pyrimidin-4-yl}-nicotinonitrile], the IC50 at TBK1 and on IKKε (setting [1]) was less than 30 nM throughout.

For `N#Cc1cc(-c2ccnc(Nc3cccc(C(=O)NC4CCNCC4)c3)n2)cnc1N1CC[C@H](F)C1` [DMX-11, 3-{4-[5-Cyano-6-((S)-3-fluoro-pyrrolidin-1-yl)-pyridin-3-yl]-pyrimidin-2-ylamino}-N-piperidin-4-yl-benzamide], the IC50 on TBK1 and at IKKε (setting [1]) was less than 30 nM throughout.

In the case of `CN1CCC(NC(=O)c2cccc(Nc3nccc(-c4cnc(N5CC[C@H](O)C5)c(C#N)c4)n3)c2)CC1` [DMX-12, 3-{4-[5-Cyano-6-((S)-3-hydroxy-pyrrolidin-1-yl)-pyridin-3-yl]-pyrimidin-2-ylamino}-N-(1-methyl-piperidin-4-yl)-benzamide], the 50% inhibitory concentration (IC50) on TBK1 is less than 100 nM; on IKKε (setting [1]), less than 1000 nM.

Turning to `CN1CCC(Nc2ccc(Nc3nccc(-c4cnc(N5CC[C@H](O)C5)c(C#N)c4)n3)cn2)CC1` [DMX-13, 2-((S)-3-Hydroxy-pyrrolidin-1-yl)-5-{2-[6-(1-methyl-piperidin-4-ylamino)-pyridin-3-ylamino]-pyrimidin-4-yl}-nicotinonitrile], the IC50 on TBK1 and at IKKε (setting [1]) was less than 100 nM throughout.

Consider `CN1CCC(NC(=O)c2cccc(Nc3nccc(-c4cnc(N5CCC(F)(F)C5)c(C#N)c4)n3)c2)CC1` [DMX-14, 3-{4-[5-Cyano-6-(3,3-difluoro-pyrrolidin-1-yl)-pyridin-3-yl]-pyrimidin-2-ylamino}-N-(1-methyl-piperidin-4-yl)-benzamide], for which the IC50 at TBK1 and at IKKε (setting [1]) was less than 100 nM throughout.

In the case of `CN1CCC(Nc2ccc(Nc3nccc(-c4cnc(N5CCC(F)(F)C5)c(C#N)c4)n3)cn2)CC1` [DMX-15, 2-(3,3-Difluoro-pyrrolidin-1-yl)-5-{2-[6-(1-methyl-piperidin-4-ylamino)-pyridin-3-ylamino]-pyrimidin-4-yl}-nicotinonitrile], the IC50 was less than 30 nM at TBK1 and less than 100 nM on IKKε (setting [1]).

In the case of `Cn1cc(Nc2nccc(-c3cnc(N4CC[C@H](O)C4)c(C#N)c3)n2)cn1` [DMX-16, 2-((S)-3-Hydroxy-pyrrolidin-1-yl)-5-[2-(1-methyl-1H-pyrazol-4-ylamino)-pyrimidin-4-yl]-nicotinonitrile], the IC50 on TBK1 and at IKKε (setting [1]) was less than 100 nM throughout.

`N#Cc1cc(-c2ccnc(Nc3ccc(NC(=O)CN4CCOCC4)nc3)n2)cnc1N1CC[C@H](F)C1` [DMX-17, N-(5-{4-[5-Cyano-6-((S)-3-fluoro-pyrrolidin-1-yl)-pyridin-3-yl]-pyrimidin-2-ylamino}-pyridin-2-yl)-2-morpholin-4-yl-acetamide]: the IC50 on TBK1 and on IKKε (setting [1]) was less than 30 nM each time.

For `CC(C(=O)Nc1ccc(Nc2nccc(-c3cnc(N4CC[C@H](F)C4)c(C#N)c3)n2)cn1)N(C)C` (stereo partly drawn) [DMX-18, N-(5-{4-[5-Cyano-6-((S)-3-fluoro-pyrrolidin-1-yl)-pyridin-3-yl]-pyrimidin-2-ylamino}-pyridin-2-yl)-2-dimethylamino-propionamide], the IC50 on TBK1 and on IKKε (setting [1]) was less than 100 nM throughout.

Consider `N#Cc1cc(-c2ccnc(Nc3ccc(NC(=O)C4CC4)nc3)n2)cnc1N1CC[C@H](F)C1` [DMX-19, Cyclopropanecarboxylic acid (5-{4-[5-cyano-6-((S)-3-fluoro-pyrrolidin-1-yl)-pyridin-3-yl]-pyrimidin-2-ylamino}-pyridin-2-yl)-amide], for which the IC50 on TBK1 and at IKKε (setting [1]) was less than 100 nM each time.

Regarding `N#Cc1cc(-c2ccnc(Nc3cnc(N4CCOCC4)nc3)n2)cnc1N1CC[C@H](F)C1` [DMX-20, 2-((S)-3-Fluoro-pyrrolidin-1-yl)-5-[2-(2-morpholin-4-yl-pyrimidin-5-ylamino)-pyrimidin-4-yl]-nicotinonitrile], the IC50 on TBK1 and at IKKε (setting [1]) was less than 100 nM in each case.

With `COCCN(C)CC(=O)Nc1ccc(Nc2nccc(-c3cnc(N4CC[C@H](F)C4)c(C#N)c3)n2)cn1` [DMX-21, N-(5-{4-[5-Cyano-6-((S)-3-fluoro-pyrrolidin-1-yl)-pyridin-3-yl]-pyrimidin-2-ylamino}-pyridin-2-yl)-2-[(2-methoxy-ethyl)-methyl-amino]-acetamide], the IC50 at TBK1 and at IKKε (setting [1]) was less than 30 nM throughout.

Turning to `CC(C)(O)CNc1ccc(Nc2nccc(-c3cnc(N4CC[C@H](F)C4)c(C#N)c3)n2)cn1` [DMX-22, 2-((S)-3-Fluoro-pyrrolidin-1-yl)-5-{2-[6-(2-hydroxy-2-methyl-propylamino)-pyridin-3-ylamino]-pyrimidin-4-yl}-nicotinonitrile], the IC50 was less than 30 nM at TBK1 and less than 15 nM at IKKε (setting [1]).

Regarding `CC(C)N1CCN(CC(=O)Nc2ccc(Nc3nccc(-c4cnc(N5CC[C@H](F)C5)c(C#N)c4)n3)cn2)CC1` [DMX-23, N-(5-{4-[5-Cyano-6-((S)-3-fluoro-pyrrolidin-1-yl)-pyridin-3-yl]-pyrimidin-2-ylamino}-pyridin-2-yl)-2-(4-isopropyl-piperazin-1-yl)-acetamide], the IC50 on TBK1 and on IKKε (setting [1]) was less than 30 nM throughout.

Take `CN1CCN(c2ccc(Nc3nccc(-c4cnc(N5CC[C@H](F)C5)c(C#N)c4)n3)cn2)CC1` [DMX-24, 2-((S)-3-Fluoro-pyrrolidin-1-yl)-5-{2-[6-(4-methyl-piperazin-1-yl)-pyridin-3-ylamino]-pyrimidin-4-yl}-nicotinonitrile]: the IC50 at TBK1 and on IKKε (setting [1]) was less than 15 nM each time.

Consider `N#Cc1cc(-c2ccnc(Nc3ccc(N4CCNCC4)nc3)n2)cnc1N1CC[C@H](F)C1` [DMX-25, 2-((S)-3-Fluoro-pyrrolidin-1-yl)-5-[2-(6-piperazin-1-yl-pyridin-3-ylamino)-pyrimidin-4-yl]-nicotinonitrile], for which the IC50 on TBK1 is less than 30 nM; on IKKε (setting [1]) it was less than 15 nM.

On to `C[C@@H]1CN(c2ccc(Nc3nccc(-c4cnc(N5CC[C@H](O)C5)c(C#N)c4)n3)cn2)CCN1` [DMX-26, 2-((S)-3-Hydroxy-pyrrolidin-1-yl)-5-{2-[6-((R)-3-methyl-piperazin-1-yl)-pyridin-3-ylamino]-pyrimidin-4-yl}-nicotinonitrile], for which the IC50 is less than 30 nM on TBK1 and less than 100 nM at IKKε (setting [1]).

On to `N#Cc1cc(-c2ccnc(Nc3ccc(NCCO)nc3)n2)cnc1N1CC[C@H](F)C1` [DMX-27, 2-((S)-3-Fluoro-pyrrolidin-1-yl)-5-{2-[6-(2-hydroxy-ethylamino)-pyridin-3-ylamino]-pyrimidin-4-yl}-nicotinonitrile], for which the half-maximal inhibitory concentration (IC50) at TBK1 and against IKKε was less than 30 nM in each case.
